One series deals with S. epidermidis. The experiment in a line: Anti-biofilm activity (inhibition of biofilm formation). Type of series: cell-based. The settings on record: Staphylococcus epidermidis, read-out: Anti-biofilm IC50.
A further series has as its system K. pneumoniae K66-45. The series can be described thus: MIC, multi-resistant clinical isolate. To be noted: for MIC: Klebsiella pneumoniae, K6645, read-out: Antimicrobial activity (MIC); for selectivity index (EC50/MIC): RBC EC50 / MIC, K. pneumoniae K66-45. Type of series: cell-based, Klebsiella pneumoniae.
Another series concerns human RBCs. The experiment in a line: Determination of haemolytic activity. The series is classed as cell-based. Summed up: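 Heparinized fresh blood was washed in PBS, and RBCs were used at 1% v/v final with test compounds at 500–4 μM (DMSO ≤1%) for 1 h at 37 °C. Haemoglobin release was read at 545 nm and expressed relative to 1% Triton X-100 after PBS background correction. EC50 values are means of three independent experiments.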

The values below come from patent US11072588B2, “Barbituric acid derivatives comprising cationic and lipophilic groups” (UNIVERSITETET I TROMSØ—NORGES ARKTISKE UNIVERSITET, priority 2017, dated 2021).

For orientation: IC50 means the concentration that inhibits the measured activity by half. The term MIC denotes the least concentration at which growth counts as inhibited.

Molecules are shown by their SMILES. Values after ≈ are worked out from the molar mass of the structure shown. Bounds are passed on as bounds.

As for `NCCCCN1C(=O)N(CCCCN)C(=O)C(Cc2cc(Br)cc(Br)c2)(Cc2cc(Br)cc(Br)c2)C1=O` [7(ii)], in the series with S. epidermidis, the IC50 was 6 µg/mL (≈ 7.83 µM). Besides, in the series with K. pneumoniae K66-45, the MIC turned out to be 16 µg/mL (≈ 20.9 µM) and the “selectivity index (EC50/MIC)” value is on record as “(5)”.

As to `CC(C)(C)c1cc(CC2(Cc3cc(C(C)(C)C)cc(C(C)(C)C)c3)C(=O)N(CCCCN)C(=O)N(CCCCN)C2=O)cc(C(C)(C)C)c1` [7(iii), 1,3-bis(4-aminobutyl)-5,5-bis(3,5-di-tert-butylbenzyl)-pyrimidin-2,4,6(1H,3H,5H)-trione], the IC50 in the series on S. epidermidis stood at 1 µg/mL (≈ 1.48 µM). Besides, in the series with K. pneumoniae K66-45, the MIC is 8 µg/mL (≈ 11.9 µM) and the “selectivity index (EC50/MIC)” value is reported as “(<0.5)”.

Turning to `NCCCCN1C(=O)N(CCCCN)C(=O)C(Cc2ccc3ccccc3c2)(Cc2ccc3ccccc3c2)C1=O` [7(iv), 1,3-bis(4-aminobutyl)-5,5-bis(naphtalen-2-yl-methyl)-pyrimidin-2,4,6(1H,3H,5H)-trione], the IC50 in the series with S. epidermidis was determined as 4 µg/mL (≈ 7.26 µM). Besides, the MIC in the series with K. pneumoniae K66-45 was greater than 32 µg/mL.

Consider `NCCCCN1C(=O)N(CCCCN)C(=O)C(Cc2ccc(F)c3ccccc23)(Cc2ccc(F)c3ccccc23)C1=O` [7(v), 1,3-bis(4-aminobutyl)-5,5-bis((4-fluoronaphtalen-1-yl)methyl)pyrimidin-2,4,6(1H,3H,5H)-trione], for which, in the series with S. epidermidis, the IC50 came out at 4 µg/mL (≈ 6.82 µM). For the same compound, in the series with K. pneumoniae K66-45, the MIC was 32 µg/mL (≈ 54.5 µM) and the “selectivity index (EC50/MIC)” value is recorded as “(5)”.

With `NCCCCN1C(=O)N(CCCCN)C(=O)C(Cc2cc(C(F)(F)F)cc(C(F)(F)F)c2)(Cc2cc(C(F)(F)F)cc(C(F)(F)F)c2)C1=O` [7(vi)], in the series on K. pneumoniae K66-45, the MIC was found to be 32 µg/mL (≈ 44.3 µM) and the “selectivity index (EC50/MIC)” value is “(6)”.

On to `N=C(N)NCCCCN1C(=O)N(CCCCNC(=N)N)C(=O)C(Cc2cc(Br)cc(Br)c2)(Cc2cc(Br)cc(Br)c2)C1=O` [8(ii), 1,1′-(4,4′-(5,5-bis(3,5-dibromobenzyl)-2,4,6-trioxodihydropyrimidine-1,3(2H,4H)-diyl)bis(butane-4,1-diyl))diguanidine], for which, in the series on S. epidermidis, the IC50 is 1 µg/mL (≈ 1.18 µM). Also, in the series on K. pneumoniae K66-45, the MIC came to 4 µg/mL (≈ 4.7 µM) and the “selectivity index (EC50/MIC)” value was “(14)”.

In the case of `CC(C)(C)c1cc(CC2(Cc3cc(C(C)(C)C)cc(C(C)(C)C)c3)C(=O)N(CCCCNC(=N)N)C(=O)N(CCCCNC(=N)N)C2=O)cc(C(C)(C)C)c1` [8(iii), 1,1′-(4,4′-(5,5-bis(3,5-di-tert-butylbenzyl)-2,4,6-trioxodihydropyrimidine-1,3(2H,4H)-diyl)bis(butane-4,1-diyl))-diguanidine], the IC50 in the series with S. epidermidis was found to be 2 µg/mL (≈ 2.63 µM). Also, in the series with K. pneumoniae K66-45, the MIC is 8 µg/mL (≈ 10.5 µM) and the “selectivity index (EC50/MIC)” value is given as “(<0.5)”.

For `N=C(N)NCCCCN1C(=O)N(CCCCNC(=N)N)C(=O)C(Cc2ccc3ccccc3c2)(Cc2ccc3ccccc3c2)C1=O` [8(iv), 1,1′-(4,4′-(5,5-bis(naphthalen-2-ylmethyl)-2,4,6-trioxodihydropyrimidine-1,3(2H,4H)-diyl)bis(butane-4,1-diyl))-diguanidine], in the series on S. epidermidis, the concentration for half-maximal inhibition (IC50) worked out at 1 µg/mL (≈ 1.58 µM). In the series on K. pneumoniae K66-45, the MIC is 16 µg/mL (≈ 25.2 µM) and the “selectivity index (EC50/MIC)” value is on record as “(8)”.

As to `N=C(N)NCCCCN1C(=O)N(CCCCNC(=N)N)C(=O)C(Cc2ccc(F)c3ccccc23)(Cc2ccc(F)c3ccccc23)C1=O` [8(v), 1,1′-(4,4′-(5,5-bis((4-fluoronaphthalen-1-yl)methyl)-2,4,6-trioxodihydropyrimidine-1,3(2H,4H)-diyl)bis(butane-4,1-diyl))diguanidine], the IC50 in the series on S. epidermidis amounted to 1 µg/mL (≈ 1.49 µM). Moreover, in the series on K. pneumoniae K66-45, the MIC is 4 µg/mL (≈ 5.96 µM) and the “selectivity index (EC50/MIC)” value is on record as “(22)”.

With `CC(C)(C)c1ccc(CC2(Cc3ccc(C(C)(C)C)cc3)C(=O)N(CCCCN)C(=O)N(CCCCN)C2=O)cc1` [Compound 7(i), 1,3-bis(4-aminobutyl)-5,5-bis(4-tertbutylbenzyl) pyrimidin-2,4,6(1H,3H,5H)-trione], the IC50 with S. epidermidis stood at 4 µg/mL (≈ 7.11 µM). For the same compound, in the series with K. pneumoniae K66-45, the MIC came out at 32 µg/mL (≈ 56.9 µM) and the “selectivity index (EC50/MIC)” value is given as “(4)”.

Consider `CC(C)(C)c1ccc(CC2(Cc3ccc(C(C)(C)C)cc3)C(=O)N(CCCCNC(=N)N)C(=O)N(CCCCNC(=N)N)C2=O)cc1` [Compound 8(i), 1,1′-(4,4′-(5,5-bis(4-tert-butylbenzyl)-2,4,6-trioxodihydropyrimidine-1,3(2H,4H)-diyl)bis(butane-4,1-diyl))diguanidine], for which the IC50 with S. epidermidis is 1 µg/mL (≈ 1.55 µM). Besides, the “RBC toxicity compared to the amine 7(i)” value in the series on human RBCs is reported as “twofold increased RBC toxicity”. Further, in the series with K. pneumoniae K66-45, the MIC is 4 µg/mL (≈ 6.18 µM) and the “selectivity index (EC50/MIC)” value was “(19)”.
